Source: PMC11979273, “A phase I study to evaluate the safety, tolerability, and pharmacokinetics of HEC113995PA·H2O, a novel dual-acting serotonergic antidepressant, in healthy subjects” (Frontiers in Pharmacology, 2025)

How the values were obtained:
[1] = Multiple ascending-dose study, safety (adverse events); assay type: in vivo
Description: Three drug doses (10, 20 and 40 mg) were utilized. A total of 36 healthy subjects of both genders were assigned randomly to the three groups (n = 12), with10 subjects taking HEC113995PA·H2O tablets and 2 taking placebo. The participants in the 10 mg dose group received a single dose daily in the morning after overnight fasting, or a single dose daily after a standard meal in the 20 mg and 40 mg dose groups for 10 consecutive days. Serial blood samples were collected within 0.5 h before drug administration on days 7, 8 and 9, and before and after drug administration on days 1 and 10 to determine plasma concentration and pharmacokinetic characteristics. Safety and tolerability were evaluated on days 4, 8, 13 and 15.
The trial was conducted in a dose-escalation manner, with the administration of the next dose arm only after the tolerability and safety of the previous arm had been fully evaluated. Following the assessments by both the investigator and the sponsor, the next dose level could be reverted to the previous dose group if deemed necessary. In such cases, twelve new healthy subjects (10 taking HEC113995PA·H2O tablets and 2 taking placebo) were enrolled to explore the maximum safe tolerated dose. Throughout the entire trial (including the SAD trial, FE trial and MAD trial), each subject was only allowed to participate in one dose group.
(§1) Safety indicators were assessed through adverse events (AE), clinical laboratory tests (including blood routine, blood biochemistry, urine routine), vital signs monitoring (ear temperature), pulse, respiration and blood pressure in a sitting position), 12-lead electrocardiogram (ECG) and physical examinations. Adverse events (AE) and serious adverse events (SAE) were evaluated following the criteria outlined in National Cancer Institute Common Terminology Criteria for Adverse Events (NCI-CTCAE) version 5.0.
(§2) Any adverse events that occurred in all subjects during the clinical trial were recorded with the following details: AE name, occurrence time, end time, severity, whether it was classified as a SAE, severity criteria (if applicable), treatment measures and outcomes, actions taken on investigational drug due to the AE, and the causal relationship between the AE and administrated drug, etc. Each AE was recorded separately.
(§3) The subjects were under close monitoring at the clinical research center until the sample retention and safety evaluation were completed. During the safety trial, drug intolerance of a given dose was defined as follows: grade 2 or higher drug-related AEs occurred in more than half of the subjects, or grade 3 or higher drug-related AEs occurred in more than one quarter of the subjects. The dose escalation was halted after drug intolerance occurred.

[2] = Single ascending-dose study, safety (adverse events); assay type: in vivo, human
Description: The study comprised a total of 7 dose groups (2.5, 5, 10, 20, 40, 60, and 80 mg groups, respectively). The first dose group (2.5 mg) consisted of 8 subjects, with 6 receiving HEC113995PA·H2O and 2 receiving placebo. Dose groups 2–7 each included 10 subjects, with 8 subjects receiving HEC113995PA·H2O and 2 subjects receiving placebo. Male and female participants were randomly assigned to the groups. Serial blood samples were collected before and after drug administration to determine the plasma concentration of pharmacokinetics (PK) and to evaluate the pharmacokinetic characteristics. The time points of blood collection and safety evaluation of PK in the second to seventh dose groups were adjusted based on the results of the first dose group. Drug safety and tolerability were evaluated on day 2 and 4 in the first dose group and on day 4 and 7 in the second to seventh dose groups. The trial was conducted in a dose-escalation manner, with progression to the next dose arm only after the safety of the previous arm had been evaluated. In the fourth group (20 mg group), in addition to blood samples, urine and stool samples were also collected for in vivo drug metabolic transformation studies.
as §1, §2, §3

Cc1nc(-c2cnc(N3CCN(CCCc4c[nH]c5ccc(C#N)cc45)CC3)nc2)sc1C(N)=O [HEC113995PA·H2O]
related TEAE: diarrhea ([1]; MAD 10 mg): 2 cases | related TEAE: dizziness ([1]; MAD 10 mg): 1 case | related TEAE: elevated blood triglycerides ([1]; MAD 10 mg): 2 cases | related TEAE: nausea ([1]; MAD 10 mg): 1 case | Grade 2 related AE: elevated blood triglycerides ([1]; MAD 10 mg group): 1 case | related TEAE: elevated gamma-glutamyl transferase (γ-GT) ([1]; MAD 10 mg group): 1 case | related TEAE: oral ulcer ([1]; MAD 10 mg group): 2 cases | incidence of subjects experiencing TRAEs ([1]; MAD 10 mg group, 7 subjects): 70.0% | incidence of subjects experiencing TEAE ([1]; MAD 10 mg group, 8 subjects): 80.0% | related TEAE: diarrhea ([1]; MAD 20 mg): 1 case | related TEAE: dizziness ([1]; MAD 20 mg): 1 case | related TEAE: nausea ([1]; MAD 20 mg): 3 cases | incidence of subjects experiencing TRAEs ([1]; MAD 20 mg group, 6 subjects): 66.7% | incidence of subjects experiencing TEAE ([1]; MAD 20 mg group, 8 subjects): 88.9% | related TEAE: dizziness ([1]; MAD 40 mg): 4 cases | related TEAE: elevated blood triglycerides ([1]; MAD 40 mg): 3 cases | related TEAE: nausea ([1]; MAD 40 mg): 1 case | Grade 2 related AE: elevated blood cholesterol ([1]; MAD 40 mg group): 1 case | Grade 2 related AE: elevated blood triglycerides ([1]; MAD 40 mg group): 1 case | related TEAE: elevated gamma-glutamyl transferase (γ-GT) ([1]; MAD 40 mg group): 1 case | incidence of subjects experiencing TRAEs ([1]; MAD 40 mg group, 6 subjects): 60.0% | incidence of subjects experiencing TEAE ([1]; MAD 40 mg group, 8 subjects): 80.0% | Grade 3 or higher TEAEs related to the investigational product ([1]; MAD trial): no Grade 3 or higher TEAEs | related TEAE incidence: elevated gamma-glutamyl transferase (γ-GT) ([1]; MAD, 2/29): 6.9% | related TEAE incidence: oral ulcer ([1]; MAD, 2/29): 6.9% | related TEAE incidence: hyperuricemia ([1]; MAD, 2/29, both cases in the 40 mg group): 6.9% | related TEAE incidence: diarrhea ([1]; MAD, 3/29): 10.3% | related TEAE incidence: dry mouth ([1]; MAD, 3/29, all cases in the 10 mg group): 10.3% | related TEAE incidence: headache ([1]; MAD, 3/29, exclusively observed in the 20 mg group): 10.3% | related TEAE incidence: terminal insomnia ([1]; MAD, 3/29, limited to the 20 mg group): 10.3% | related TEAE incidence: elevated blood triglycerides ([1]; MAD, 5/29): 17.2% | related TEAE incidence: nausea ([1]; MAD, 5/29): 17.2% | related TEAE incidence: dizziness ([1]; MAD, 6/29): 20.7% | incidence of Grade 2 AEs related to the investigational product ([1]; MAD, HEC113995PA·H2O group, 3 cases): 10.3% | incidence of subjects experiencing TRAEs ([1]; MAD, HEC113995PA·H2O trial group, 19 subjects, 48 TRAEs): 65.5% | incidence of subjects experiencing TEAE ([1]; MAD, HEC113995PA·H2O trial group, 24 subjects, 85 incidents): 82.8% | tolerability ([1]; healthy Chinese subjects, multiple doses range 10–40 mg daily): well tolerated | incidence of subjects experiencing TEAEs ([2]; SAD 2.5 mg group, 1 case): 16.7% | incidence of subjects experiencing TEAEs ([2]; SAD 5 mg group, 3 cases): 37.5% | number of subjects experiencing TEAEs ([2]; SAD 10 mg group): 0 case | incidence of subjects experiencing TEAEs ([2]; SAD 20 mg group, 5 cases): 62.5% | incidence of subjects experiencing TEAEs ([2]; SAD 40 mg group, 6 cases): 75% | incidence of subjects experiencing TEAEs ([2]; SAD 60 mg group, 7 cases): 87.5% | incidence of subjects experiencing TEAEs ([2]; SAD 80 mg group, 7 cases): 87.5% | incidence of subjects experiencing TEAEs ([2]; SAD overall safety analysis set incl. placebo, 36 subjects): 52.9% | incidence of subjects experiencing TRAE ([2]; SAD overall safety analysis set, 33 cases): 48.5% | TRAE incidence: abdominal distension ([2]; SAD overall, 1 case): 1.9% | TRAE incidence: elevated conjugated bilirubin ([2]; SAD overall, 1 case): 1.9% | TRAE incidence: elevated serum bilirubin ([2]; SAD overall, 1 case): 1.9% | TRAE incidence: elevated serum creatine phosphokinase ([2]; SAD overall, 1 case): 1.9% | TRAE incidence: hyperuricemia ([2]; SAD overall, 5 cases): 7.4% | TRAE incidence: nausea ([2]; SAD overall, 5 cases): 7.4% | TRAE incidence: dizziness ([2]; SAD overall, 8 cases): 11.8% | TRAE incidence: elevated triglycerides ([2]; SAD overall, 8 cases): 11.8% | TRAE incidence: diarrhea ([2]; SAD overall, 13 cases): 19.1% | severity of elevated conjugated bilirubin ([2]; SAD, CTCAE 5.0): grade 2 | severity of other TRAEs ([2]; SAD, CTCAE 5.0, spontaneously relieved without treatment): grade 1 | tolerability ([2]; healthy Chinese subjects, single dose range 2.5–80 mg): well tolerated
